Consider 19 molecules from patent publication US10538497B2, “Compounds as indoleamine 2,3-dioxygenase inhibitors” (Merck Sharp & Dohme Corp., priority 2015, dated 2020).

Assay [1] has as its target T1, IDO1 (Homo sapiens (Human), UniProt P14902). In words: IDO1 Cellular Assay in Frozen HEK293 Cells Transiently Transfected with Human IDO1. It is filed as cell-based. Particulars: read-out: IDO1 HEK293 Cell Assay, IC50.
For assay [2], the target named is T1, IDO1. The assay is described as follows: IDO1 Cellular Assay in Hela Cells Stimulated with IFNγ. It counts as cell-based. Particulars: Hela cells stimulated with IFNγ 100 ng/mL; read-out: IDO1 HELA Cell Assay, IC50.
Assay [3] addresses T1, IDO1. In words: IDO1 Human Whole Blood Assay. It is filed as cell-based. Particulars: LPS and IFNγ 100 ng/mL, kynurenine by LC/MS/MS. How it is done: IDO1 Human Whole Blood Assay
LPS and IFNγ was prepared in RPMI to a 10× of final conc. (1000 ng/mL), final concentration is 100 ng/mL.
Human whole blood was drawn in sodium heparin coated tubes from healthy internal donors. Two hundred fourty μL of blood was transferred to each of the wells of a v-bottom 96 well plate. Thirty μL of compound was transferred from intermediate dilution plate, and incubated for 15 min. […] from stimulants was then transferred to blood and mixed thoroughly. Plate was covered with breathable membrane and incubated at 37° C. for overnight (18 h).
On day 2 isotope labeled standard of kunurenine and tryptophan was made in water at 10× concentration and 30 μL was added to the blood at 3 μM final concentration. The assay plates were centrifuged at 300×G for 10 min with no brake to separate plasma from red blood cells. Sixty μL of plasma samples was removed without disturbing red blood cells. Plasma was diluted with RPMI in 1:1 ratio and proteins were precipitated out with two volume of Acetonitrile. The plates was centrifuged at 4000×G for 60 min. Twenty μL of supernatant was carefully transferred to a 384 well plate contain 40 μL of 0.1% formic acid in water and analysed by LC/MS/MS.
LC/MS/MS analyses were performed using Thermo Fisher's LX4-TSQ Quantum Ultra system. This system consists of four Agilent binary high-performance liquid chromatography (HPLC) pumps and a TSQ Quantum Ultra triple quadrupole MS/MS instrument. For each sample, 5 μL were injected onto an Atlantis T3 column column (2.1 mm×150 mm, 3 μm particle size) from Waters. The mobile phase gradient pumped at 0.8 mL/min was used to elute the analytes from the column at 25° C. The elution started at 0% B increasing linearly to 25% B at 6.5 min, holding at 25% for 1 min, re-equilibrating to 10 min. Mobile phase A consisted of 0.1% formic acid in water. Mobile phase B consisted of 0.1% of formic acid in acetonitrile. Data was acquired in positive mode using a HESI interface. The operational parameters for the TSQ Quantum Ultra instrument were a spray voltage of 4000 V, capillary temperature of 380° C., vaporizer temperature 400° C., shealth gas 60 arbitrary units, Aux gas 20 arbitrary units, tube lens 85 and collision gas 1.2 mTorr. SRM chromatograms of kynurenine (Q1: 209.2>Q3:94.0) and internal standard (Q1: 215.3>Q3:98.2) were collected for 90 sec. The peak area was integrated by Xcalibur Quan software. The ratios between the kynurenine generated in the reaction and 2D6-Kynurenine spiked-in internal standard were used to generate percentage inhibition and IC50 values. Compounds were titrated and IC50's were calculated by 4 parameter sigmoidal curve fitting formula.

Assay [4] has as its target T1, IDO1. In words: IDO1 Enzyme Assay. Particulars: HIS-tagged recombinant IDO1, 40 nM.
Where [5] appears, read: HEK293 cells transiently transfected with human IDO1.
Setting [6] is: read-out: IDO1 Enzyme Assay, IC50.

T1 sequence (P14902 whole entry): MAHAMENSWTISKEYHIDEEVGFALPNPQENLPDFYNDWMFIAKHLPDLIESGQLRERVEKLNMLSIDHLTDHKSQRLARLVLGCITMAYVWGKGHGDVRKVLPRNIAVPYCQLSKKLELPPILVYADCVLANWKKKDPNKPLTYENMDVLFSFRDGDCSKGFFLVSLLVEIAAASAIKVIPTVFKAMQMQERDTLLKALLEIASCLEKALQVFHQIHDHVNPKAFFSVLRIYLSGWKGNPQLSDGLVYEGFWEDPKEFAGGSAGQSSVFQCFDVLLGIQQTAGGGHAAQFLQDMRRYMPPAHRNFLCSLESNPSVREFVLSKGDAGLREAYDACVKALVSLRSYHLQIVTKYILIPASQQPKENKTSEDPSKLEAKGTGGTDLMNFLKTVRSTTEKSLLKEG

`OCC(O)CSc1nonc1/C(=N/O)Nc1ccc(F)c(Br)c1` (stereo not shown) [Example 17, (Z)-N-(3-bromo-4-fluorophenyl)-4-((2,3-dihydroxypropyl)thio)-N′-hydroxy-1,2,5-oxadiazole-3-carboximidamide]: the IC50 (as a rule, the concentration that inhibits the measured activity by half) turned out to be 0.0425 µM at IDO1 [1] (setting [5]), 0.0395 µM on IDO1 [2], 0.441 µM against IDO1 [3] and 34.8 nM on IDO1 [4] (setting [6]).
Turning to `CNC(=O)NCCSc1nonc1/C(=N/O)Nc1ccc(F)c(Br)c1` [Example 45, N-(3-bromo-4-fluorophenyl)-N′-hydroxy-4-((2-(3-methylureido)ethyl)thio)-1,2,5-oxadiazole-3-carboximidamide], the half-maximal inhibitory concentration (IC50) at IDO1 [1] was determined as 0.0243 µM; on IDO1 [2], 0.0477 µM; at IDO1 [3], 0.405 µM; at IDO1 [4] (setting [6]) it was 22.5 nM.
With `N#Cc1cc(N/C(=N\O)c2nonc2SC[C@@H](O)CO)ccc1F` [Example 140, N-(3-cyano-4-fluorophenyl)-4-{[(2S)-2,3-dihydroxypropyl]sulfanyl}-N′-hydroxy-1,2,5-oxadiazole-3-carboximidamide], the half-inhibitory concentration (IC50) came out at 0.269 µM at IDO1 [1] (setting [5]), 0.245 µM on IDO1 [2], 0.384 µM against IDO1 [3] and 96.7 nM at IDO1 [4] (setting [6]).
Taken in the same sequence, the figures for `O/N=C(\Nc1ccc(F)c(Br)c1)c1nonc1SCc1nnc[nH]1` [Example 191, N-(3-bromo-4-fluorophenyl)-N′-hydroxy-4-[(4H-1,2,4-triazol-3-ylmethyl)sulfanyl]-1,2,5-oxadiazole-3-carboximidamide] were 0.01 µM, 0.0226 µM, 0.903 µM and 43.7 nM.
Turning to `CS(=O)(=O)NCCSc1nonc1/C(=N/O)Nc1ccc(F)c(C#N)c1` [Example 171, N-(3-cyano-4-fluorophenyl)-N′-hydroxy-4-({2-[(methylsulfonyl)amino]ethyl}sulfanyl)-1,2,5-oxadiazole-3-carboximidamide], the IC50 at IDO1 [1] (setting [5]) was determined as 0.0308 µM; at IDO1 [2], 0.12 µM; on IDO1 [3] it was 0.66 µM; at IDO1 [4] (setting [6]) it was 110 nM.
As for `Cc1cc(CSc2nonc2/C(=N/O)Nc2ccc(F)c(Br)c2)[nH]c(=O)c1` [Example 102, N-(3-bromo-4-fluorophenyl)-N′-hydroxy-4-{[(4-methyl-6-oxo-1,6-dihydropyridin-2-yl)methyl]sulfanyl}-1,2,5-oxadiazole-3-carboximidamide], the IC50 was 0.0444 µM on IDO1 [1] (setting [5]), 0.0818 µM on IDO1 [2], over 10 µM at IDO1 [3] and 72.4 nM on IDO1 [4] (setting [6]).
Taken in the same sequence, the figures for `N#Cc1cc(N/C(=N\O)c2nonc2SC[C@H]2CCC(=O)N2)ccc1F` [Example 148, N-(3-cyano-4-fluorophenyl)-N′-hydroxy-4-({[(2R)-5-oxopyrrolidin-2-yl]methyl}sulfanyl)-1,2,5-oxadiazole-3-carboximidamide] were 0.209 µM, 0.303 µM, 1.76 µM and 172 nM.
Turning to `CC(=O)NCCSc1nonc1/C(=N/O)Nc1ccc(F)c(C#N)c1` [Example 37, N-(2-((4-(N-(3-cyano-4-fluorophenyl)-N′-hydroxycarbamimidoyl)-1,2,5-oxadiazol-3-yl)thio)ethyl)acetamide], the IC50 at IDO1 [1] (setting [5]) came out at 0.0831 µM; at IDO1 [2] it was 0.0594 µM; against IDO1 [3], 0.469 µM; at IDO1 [4] (setting [6]), 104 nM.
Consider `N#Cc1cc(N/C(=N\O)c2nonc2SC[C@@H]2CCC(=O)N2)ccc1F` [Example 149, N-(3-cyano-4-fluorophenyl)-N′-hydroxy-4-({[(2S)-5-oxopyrrolidin-2-yl]methyl}sulfanyl)-1,2,5-oxadiazole-3-carboximidamide], for which the IC50 on IDO1 [1] (setting [5]) was 0.12 µM; at IDO1 [2] it was 0.285 µM; at IDO1 [3], 1.05 µM; at IDO1 [4] (setting [6]) it was 110 nM.
Consider `CC(C)(O)C(O)CSc1nonc1/C(=N/O)Nc1ccc(F)c(Cl)c1` (single isomer, unassigned) [Example 190, N-(3-chloro-4-fluorophenyl)-4-[(2,3-dihydroxy-3-methylbutyl)sulfanyl]-N′-hydroxy-1,2,5-oxadiazole-3-carboximidamide], for which the IC50 on IDO1 [1] (setting [5]) was found to be 0.0568 µM; at IDO1 [2], 0.111 µM; at IDO1 [3] it was 1.39 µM; on IDO1 [4] (IDO1 Enzyme Assay, IC50, nM) it was 79.1 nM.
For `CNC(=O)CSc1nonc1/C(=N/O)Nc1ccc(F)c(Br)c1` [Example 41, 2-((4-(N-(3-bromo-4-fluorophenyl)-N′-hydroxycarbamimidoyl)-1,2,5-oxadiazol-3-yl)thio)-N-methylacetamide], the IC50 on IDO1 [1] (setting [5]) was determined as 0.0222 µM; at IDO1 [2] it was 0.0176 µM; against IDO1 [3], 0.15 µM; at IDO1 [4] (setting [6]) it was 43.1 nM.
Consider `N#Cc1cc(N/C(=N\O)c2nonc2SCCNC(=O)C2CC2)ccc1F` [Example 40, N-(2-((4-(N-(3-cyano-4-fluorophenyl)-N′-hydroxycarbamimidoyl)-1,2,5-oxadiazol-3-yl)thio)ethyl)cyclopropanecarboxamide], for which the 50% inhibitory concentration (IC50) came out at 0.0921 µM on IDO1 [1] (setting [5]), 0.182 µM at IDO1 [2], 1.67 µM at IDO1 [3] and 76.2 nM on IDO1 [4] (setting [6]).
Consider `CC(C)(O)C(O)CSc1nonc1/C(=N/O)Nc1ccc(F)c(Cl)c1` (single isomer, unassigned) [Example 189, N-(3-chloro-4-fluorophenyl)-4-[(2,3-dihydroxy-3-methylbutyl)sulfanyl]-N′-hydroxy-1,2,5-oxadiazole-3-carboximidamide], for which the IC50 came to 0.0399 µM on IDO1 [1] (setting [5]); 0.066 µM at IDO1 [2]; 0.704 µM against IDO1 [3]; 69.4 nM on IDO1 [4] (IDO1 Enzyme Assay, IC50, nM).
As to `N[C@H](CO)CSc1nonc1/C(=N/O)Nc1ccc(F)c(Br)c1` [Example 125, 4-{[(2R)-2-amino-3-hydroxypropyl]sulfanyl}-N-(3-bromo-4-fluorophenyl)-N′-hydroxy-1,2,5-oxadiazole-3-carboximidamide], the IC50 at IDO1 [1] (setting [5]) is 0.045 µM; at IDO1 [2] it was 0.131 µM; against IDO1 [3] it was 0.745 µM; on IDO1 [4] (setting [6]) it was 51.9 nM.
For `CNC(=O)CSc1nonc1/C(=N/O)Nc1ccc(F)c(C#N)c1` [Example 185, 2-({4-[N-(3-cyano-4-fluorophenyl)-N′-hydroxycarbamimidoyl]-1,2,5-oxadiazol-3-yl}sulfanyl)-N-methylacetamide], the IC50 at IDO1 [1] (setting [5]) was found to be 0.0654 µM; at IDO1 [2], 0.166 µM; at IDO1 [3], 0.395 µM; on IDO1 [4] (setting [6]), 88 nM.
Regarding `OC[C@@H](O)CSc1nonc1/C(=N/O)Nc1ccc(F)c(C(F)F)c1` [Example 168, N-[3-(difluoromethyl)-4-fluorophenyl]-4-{[(2R)-2,3-dihydroxypropyl]sulfanyl}-N′-hydroxy-1,2,5-oxadiazole-3-carboximidamide], the IC50 came out at 0.0551 µM on IDO1 [1] (setting [5]), 0.111 µM on IDO1 [2], 0.475 µM against IDO1 [3] and 69.1 nM on IDO1 [4] (setting [6]).
As for `N#Cc1cc(N/C(=N\O)c2nonc2SC[C@H](O)CO)ccc1F` [Example 147, N-(3-cyano-4-fluorophenyl)-4-{[(2R)-2,3-dihydroxypropyl]sulfanyl}-N′-hydroxy-1,2,5-oxadiazole-3-carboximidamide], the IC50 at IDO1 [1] (setting [5]) is 0.373 µM; on IDO1 [2] it was 0.494 µM; against IDO1 [3] it was 1.21 µM; on IDO1 [4] (setting [6]) it was 154 nM.
As for `N#Cc1cc(N/C(=N\O)c2nonc2SCCNC(=O)CO)ccc1F` [Example 182, N-[2-({4-[N-(3-cyano-4-fluorophenyl)-N′-hydroxycarbamimidoyl]-1,2,5-oxadiazol-3-yl}sulfanyl)ethyl]-2-hydroxyacetamide], the IC50 at IDO1 [1] (setting [5]) was determined as 0.186 µM; on IDO1 [2], 0.321 µM; against IDO1 [3], 0.526 µM; on IDO1 [4] (setting [6]) it was 135 nM.
`CN1C(=O)NC[C@H]1CSc1nonc1/C(=N/O)Nc1ccc(F)c(C#N)c1` [Example 146]: the IC50 on IDO1 [1] (setting [5]) was determined as 0.222 µM; at IDO1 [2] it was 0.398 µM; against IDO1 [3] it was 1.4 µM; at IDO1 [4] (setting [6]), 155 nM.
